# Assay results from patent US7803930B2, “Antisense modulation of apolipoprotein B-expression” (Isis Pharmaceuticals, Inc., priority 2002, dated 2010).
# In the oligonucleotide strings, read from the 5' end, every base follows the letter of its sugar. An asterisk marks phosphorothioate; unmarked linkages are phosphodiester. Other units and linkages are bracketed, terminal groups are in braces. A string of capitals states the bases alone. e = 2'-O-(2-methoxyethyl) (MOE); [5mC] = 5-methylcytosine; d = 2'-deoxy (DNA)
# Columns and labels:
# PTEN = test: ob/ob mice (Example 50): PTEN levels; type: in vivo, mouse; conditions: high fat high cholesterol diet, 50 mg/kg i.p. twice a week, six weeks
# Experimental: Ob/ob mice receiving a high fat, high cholesterol diet (60% kcal fat supplemented with 0.15% cholesterol) were treated with one of several oligonucleotides to evaluate their effect on apolipoprotein B-related phenotypic endpoints in ob/ob mice. After overnight fasting, mice from each group were dosed intraperitoneally twice a week with 50 mg/kg of ISIS 147483 (SEQ ID NO: 79), or 147764 (SEQ ID NO: 109), or the controls ISIS 116847 (SEQ ID NO: 857), or 141923 (SEQ ID NO: 858), or saline for six weeks. At study termination and forty eight hours after the final injections, animals were sacrificed and evaluated for target mRNA levels in liver, cholesterol and triglyceride levels, liver enzyme levels, serum glucose levels, and PTEN levels.
# apolipoprotein B mRNA = test: Lean mice, 6 weeks (Example 66): apolipoprotein B mRNA; type: in vivo, mouse
# Experimental: The accumulation of lipids in liver tissue was also evaluated in lean mice. Male […] mice (Charles River Laboratories (Wilmington, Mass.) at 6 to 7 weeks of age were maintained on a standard rodent diet and were treated twice weekly with intraperitoneal injections of 25 or 50 mg/kg 147764 (SEQ ID NO: 109) or 147483 (SEQ ID NO: 79) for 6 weeks. Saline treated animals served as controls. Each treatment group was comprised of 4 animals. Animals were sacrificed after the 6 week treatment period, at which point liver tissue and serum were collected.
# Apolipoprotein B mRNA levels were measured by real-time PCR as described by other examples herein. The data, shown in Table 51, represent the average of 4 animals and are presented as inhibition relative to saline treated controls.
# [1] = High fat fed mice (Example 65): ALT and AST levels; type: in vivo, mouse; conditions: 10, 25 and 50 mg/kg
# Experimental: Male C57Bl/6 mice were divided into the following groups, consisting of 5 animals each: (1) mice on a lean diet, injected with saline (lean control); (2) mice on a high fat diet; (3) mice on a high fat diet injected with 50 mg/kg of the control oligonucleotide 141923 (SEQ ID NO: 858); (4) mice on a high fat diet given 20 mg/kg atorvastatin calcium (Lipitor®, Pfizer Inc.); (5) mice on a high fat diet injected with 10, 25 or 50 mg/kg ISIS 147764 (SEQ ID NO: 109). Saline and oligonucleotide treatments were administered intraperitoneally twice weekly for 6 weeks. Atorvastatin was administered daily for 6 weeks. At study termination, liver samples were isolated from each animal and RNA was isolated for Northern blot qualitative assessment, DNA microarray and quantitative real-time PCR. Northern blot assessment and quantitative real-time PCR were performed as described by other examples herein.
# Mouse apolipoprotein B mRNA and serum cholesterol levels, measured as described herein, were evaluated to confirm antisense inhibition by ISIS 147764 and ISIS 147483. […] The 50 mg/kg dose of ISIS 147483 increased ALT and AST levels.
# [2] = Long-term study in lean Cynomolgous monkeys (Example 64): toxicity (steatosis, APTT, histology, kidney); type: in vivo, Cynomolgous monkey
# Experimental: Male and female Cynomologous monkeys are treated with 2, 4 or 12 mg/kg of ISIS 301012 intravenously or 2 or 20 mg/kg subcutaneously at a frequency of every two days for the first week, and every 4 days thereafter, for 1 and 3 month treatment periods. Saline-treated animals serve as controls. Each treatment group includes 2 to 3 animals of each sex.
# At a one month interval and at the 3 month study termination, the animals are sacrificed and evaluated for target expression in liver, lipid levels in serum and indicators of toxicity. Liver samples are procured, RNA is isolated and apolipoprotein B mRNA expression is measured by real-time PCR as described in other examples herein. Serum lipids, including total cholesterol, LDL-cholesterol, HDL-cholesterol and triglycerides, are evaluated by routine clinical analysis using an Olympus Clinical Analyzer (Olympus America Inc., Melville, N.Y.). Ratios of LDL-cholesterol to HDL-cholesterol and total cholesterol to HDL-cholesterol are also calculated. Analyses of serum ALT and AST, inflammatory infiltrates in tissue and basophilic granules in tissue provide an assessment of toxicities related to the treatment. Hepatic steatosis, or accumulation of lipids in the liver, is assessed by routine histological analysis with oil red 0 stain and measurement of liver tissue triglycerides using a Triglyceride GPO Assay (Sigma-Aldrich, St. Louis, Mo.).
# Hepatic steatosis, or accumulation of lipids in the liver, was not observed following 4 weeks of treatment with the doses indicated.
# [3] = test system: human apolipoprotein B protein; test: Transgenic mice dosing study (Example 52): serum human apolipoprotein B protein by ELISA; type: in vivo, human transgene in mouse
# Experimental: A long-term study of inhibition of human apolipoprotein B by ISIS 301012 in C57BL/6NTac-TgN(APOB100) mice (Taconic, Germantown, N.Y.) was conducted for a 3 month period. Mice were dosed intraperitoneally twice a week with 10 or 25 mg/kg ISIS 301012 (SEQ ID No: 247) for 12 weeks. Saline-injected animals served as controls. Each treatment group comprised 4 animals.
# After 2, 4, 6, 8 and 12 weeks of treatment, serum samples were collected for the purpose of measuring human apolipoprotein B protein. Serum protein was quantitated using an ELISA kit specific for human apolipoprotein B (ALerCHEK Inc., Portland, Me.). The data are shown in Table 30 and each result represents the average of 4 animals. Data are normalized to saline-treated control animals.
# [4] = test system: human apolipoprotein B protein; test: Apolipoprotein B protein in primary human hepatocytes, immunoblot; type: cell-based; conditions: 50, 150 and 300 nM, 24 hours, 48 hours
# Experimental: Protein samples from 50, 150 and 300 nM doses after 24 hours and 150 and 300 nM doses after 48 hours were subjected to immunoblot analysis as described by other examples herein, using a human apolipoprotein B protein specific antibody purchased from US Biological (Swampscott, Mass.).
substance,measurement,setting,value
147764 (eG*eT*e[5mC]*e[5mC]*e[5mC]*dT*dG*dA*dA*dG*dA*dT*dG*dT*d[5mC]*eA*eA*eT*eG*e[5mC]) [compound 147764],mRNA % control PTEN,PTEN,115.3 % control
"GTCCCTGAAGATGTCAATGC (2'-MOE gapmer, further chemistry not given here) [ISIS 147764]",% Inhibition apolipoprotein B mRNA,apolipoprotein B mRNA; 25 mg/kg i.p. twice weekly,48%
same,% Inhibition apolipoprotein B mRNA,apolipoprotein B mRNA; 50 mg/kg i.p. twice weekly,77%
same,inhibition of apolipoprotein B mRNA expression,apolipoprotein B mRNA; 25 or 50 mg/kg i.p. twice weekly,in a dose-dependent manner
same,ALT or AST levels,[1],did not significantly elevate
"ISIS 301012: SEQ ID NO: 247, antisense oligonucleotide targeted to human apolipoprotein B (antisense GCCTCAGTCTGCTTCGCACC; chemistry not given here)",functional changes in kidney,[2],No functional changes
same,Hepatic steatosis,[2]; 4 weeks of treatment,not observed
same,dose-related histological findings,[2]; 12 and 20 mg/kg,basophilic granules in the liver and kidney
same,transient increase in activated partial thromboplastin time (APTT),"[2]; 12 and 20 mg/kg, during the first 4 hours",1.2-1.3 fold
same,% Reduction in human apolipoprotein B protein in serum,"[3]; 10 mg/kg i.p. twice a week, 2 weeks",76%
same,% Reduction in human apolipoprotein B protein in serum,"[3]; 10 mg/kg i.p. twice a week, 4 weeks",78%
same,% Reduction in human apolipoprotein B protein in serum,"[3]; 10 mg/kg i.p. twice a week, 6 weeks",73%
same,% Reduction in human apolipoprotein B protein in serum,"[3]; 10 mg/kg i.p. twice a week, 8 weeks",42%
same,% Reduction in human apolipoprotein B protein in serum,"[3]; 10 mg/kg i.p. twice a week, 12 weeks",85%
same,% Reduction in human apolipoprotein B protein in serum,"[3]; 25 mg/kg i.p. twice a week, 2 weeks",80%
same,% Reduction in human apolipoprotein B protein in serum,"[3]; 25 mg/kg i.p. twice a week, 4 weeks",87%
same,% Reduction in human apolipoprotein B protein in serum,"[3]; 25 mg/kg i.p. twice a week, 6 weeks",86%
same,% Reduction in human apolipoprotein B protein in serum,"[3]; 25 mg/kg i.p. twice a week, 8 weeks",47%
same,% Reduction in human apolipoprotein B protein in serum,"[3]; 25 mg/kg i.p. twice a week, 12 weeks",79%
same,lowering of human apolipoprotein B protein in serum (ELISA),"[3]; 10 or 25 mg/kg i.p. twice a week, 2, 4, 6 or 12 weeks",approximately 80%
same,apolipoprotein B protein in human hepatocytes (immunoblot),[4],reduced in a dose-dependent manner
